Legend:
[1] = system: SARS-CoV-2; type: cell-based, SARS-CoV-2 (USA-WA1/2020)
[2] = biological target: SARS-CoV-2 envelope (E) protein viroporin ion channel (Severe acute respiratory syndrome coronavirus 2, UniProt P0DTC4); type: cell-based
[3] = biological target: TMPRSS2 (Homo sapiens, UniProt O15393); test: Biotin-switch assay for SNO-TMPRSS2; type: cell-based; settings: 100 μM SNOC, 20 minutes, HeLa-ACE2 cells
[4] = biological target: ACE2 (Homo sapiens, UniProt Q9BYF1); test: Biotin-switch assay for SNO-ACE2 in HeLa-ACE2 cells; type: cell-based; settings: 100 μM SNOC
[5] = biological target: SARS-CoV-2 Spike protein (Severe acute respiratory syndrome coronavirus 2, UniProt P0DTC2); type: biochemical
[6] = biological target: ACE2/SARS-CoV-2 Spike protein binding (Homo sapiens, UniProt Q9BYF1); type: cell-based
[7] = Stability in aqueous solution; type: physicochemical; settings: neutral pH

ACE2, sequence (Q9BYF1 18-805): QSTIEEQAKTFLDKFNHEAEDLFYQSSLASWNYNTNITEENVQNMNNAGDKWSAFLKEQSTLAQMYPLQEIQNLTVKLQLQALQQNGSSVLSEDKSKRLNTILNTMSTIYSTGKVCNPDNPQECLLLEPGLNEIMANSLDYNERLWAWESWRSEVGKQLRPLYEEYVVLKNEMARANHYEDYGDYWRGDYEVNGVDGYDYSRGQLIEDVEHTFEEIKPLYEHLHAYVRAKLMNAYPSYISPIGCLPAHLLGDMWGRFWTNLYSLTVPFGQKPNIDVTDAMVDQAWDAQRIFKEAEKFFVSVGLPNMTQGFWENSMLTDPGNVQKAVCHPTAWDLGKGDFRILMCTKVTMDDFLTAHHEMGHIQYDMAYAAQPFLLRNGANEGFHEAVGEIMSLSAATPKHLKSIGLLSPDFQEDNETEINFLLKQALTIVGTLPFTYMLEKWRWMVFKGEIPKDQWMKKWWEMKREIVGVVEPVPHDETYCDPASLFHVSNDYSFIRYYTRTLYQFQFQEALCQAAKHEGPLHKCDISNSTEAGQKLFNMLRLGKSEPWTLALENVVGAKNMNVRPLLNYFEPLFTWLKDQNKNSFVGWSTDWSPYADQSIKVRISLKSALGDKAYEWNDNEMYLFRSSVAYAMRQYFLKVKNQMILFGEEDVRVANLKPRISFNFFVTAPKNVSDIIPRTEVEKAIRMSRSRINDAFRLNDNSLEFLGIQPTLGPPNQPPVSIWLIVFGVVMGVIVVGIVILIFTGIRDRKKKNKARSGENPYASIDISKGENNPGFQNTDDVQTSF
TMPRSS2, sequence (O15393 whole entry): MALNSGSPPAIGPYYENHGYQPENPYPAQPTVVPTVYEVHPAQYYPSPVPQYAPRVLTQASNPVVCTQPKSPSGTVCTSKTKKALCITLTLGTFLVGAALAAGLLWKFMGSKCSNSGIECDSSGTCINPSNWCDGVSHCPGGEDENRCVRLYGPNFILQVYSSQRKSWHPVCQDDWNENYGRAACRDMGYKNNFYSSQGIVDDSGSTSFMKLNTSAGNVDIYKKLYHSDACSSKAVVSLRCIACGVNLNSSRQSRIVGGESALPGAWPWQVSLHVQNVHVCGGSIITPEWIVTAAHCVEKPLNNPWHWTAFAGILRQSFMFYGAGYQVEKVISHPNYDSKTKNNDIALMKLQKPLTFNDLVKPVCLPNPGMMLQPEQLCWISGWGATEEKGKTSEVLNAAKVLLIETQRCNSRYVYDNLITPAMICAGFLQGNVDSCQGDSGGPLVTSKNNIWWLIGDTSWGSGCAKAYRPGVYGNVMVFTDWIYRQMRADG
SARS-CoV-2 envelope (E) protein viroporin ion channel, sequence (P0DTC4 whole entry): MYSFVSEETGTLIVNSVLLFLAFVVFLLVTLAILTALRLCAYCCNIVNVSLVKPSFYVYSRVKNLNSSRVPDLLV
ACE2/SARS-CoV-2 Spike protein binding, sequence (Q9BYF1 18-805 limits assumed): as the sequence (Q9BYF1 18-805) above

| Molecule | efficacy against live SARS-CoV-2 infection [1] | inhibition of E protein voltage-dependent K+ current [2] | S-nitrosylation of TMPRSS2 [3] | stability (persistence) of SNO-ACE2 formation [4] | S-nitrosylation of ACE2 ([4]; 20 minutes) | S-nitrosylation of Spike protein [5] | binding of purified S protein to HeLa-ACE2 cells [6] | time for NO to dissipate [7] |
| --- | --- | --- | --- | --- | --- | --- | --- | --- |
| NC12CC3CC(CC(C3)C1)C2 [amantadine] | no efficacy | – | – | – | – | – | – | – |
| CC12CC3CC(C)(C1)CC(N)(C3)C2 [memantine] | no efficacy | inhibited | – | – | – | – | – | – |
| S-nitrosocysteine [SNOC] | – | – | could be S-nitrosylated | at least 12 h | could be S-nitrosylated | Lack of S-nitrosylation | significantly decreased binding | < 5 min |

— article PMC10127945 (Nature chemical biology, 2022)
